# Assay results taken from patent publication US20020028953A1, “Process for preparing 6-(4-chlorophenyl)-2,2-dimethyl-7-phenyl-2,3-dihydro-1H-pyrrolizin-5-yl-acetic acid” (Merckle GmbH, priority 2000, published 2002).
# Where two headings read alike, the source gives them in different places.
# Legend:
# [1] = stability of the solid form on drying, storage and aging; format: physicochemical
# [2] = analgesic action; conditions: result in words
# [3] = molecular target: cyclooxygenase (CO) and lipoxygenase (LO); assay: inhibitory action on the enzymes cyclooxygenase (CO) and lipoxygenase (LO); format: biochemical
IC50LO/IC50CO ([3]; ratio of IC50 lipoxygenase to IC50 cyclooxygenase),cyclooxygenase and/or lipoxygenase inhibitor ([3]; result in words),chemical stability / oxidative decomposition ([1]; listed as Polymorph A),stability on drying and storage ([1]; solvates release solvent at room temperature),Compound,chemical stability / oxidative decomposition [1],analgesic action [2]
–,–,–,–,CC1(C)Cc2c(-c3ccccc3)c(-c3ccc(Cl)cc3)c(CC(=O)O)n2C1 [amorphous ML 3000],relatively severe oxidative decomposition,–
~1,potent,high chemical stability,stable on drying and storage,"CC1(C)Cc2c(-c3ccccc3)c(-c3ccc(Cl)cc3)c(CC(=O)O)n2C1 [polymorph A, 6-(4-chlorophenyl)-2,2-dimethyl-7-phenyl-2,3-dihydro-1H-pyrrolizin-5-ylacetic Acid]",–,strong
